Experimental data taken from patent publication US20140038920A1, “TFEB PHOSPHORYLATION INHIBITORS AND USES THEREOF” (FONDAZIONE TELETHON, priority 2011, published 2014).

Assays:
[1] = tested on: long-lived protein degradation in TFEB-overexpressing cells; test: Degradation of long-lived proteins (FIG. 8); type: cell-based; settings: 3-MA added during 4 h incubation
Protocol: FIG. 8 TFEB increases autophagic proteolysis. Rate of long-lived protein degradation in TFEB-overexpressing, TFEB-depleted and control cells in either normal or starved condition. 3-methyl adenine (3MA) was added where indicated (Error bars represent standard deviations. p value (*)<0.05).
Sub-confluent cells were incubated with L-U^14C-serine for 20 h and chased for 1 h with cold media to degrade short-lived proteins. Subsequently cells were incubated with either normal media or starvation media (eventually in the presence of 3-MA) for 4 h. The rate of long-lived protein degradation was calculated from the ratio of soluble radioactivity in the media to that insoluble in the acid-precipitable cell pellet.
The applicants next measured the rate of delivery of autophagosome to lysosome using an RFP-GFP tandem tagged LC3 protein (9), which discriminates early autophagic organelles (GFP-positive/mRFP-positive) from acidified autolysosomes (GFP-negative/mRFP-positive), as the GFP signal (but not the mRFP) is quenched inside acidic compartments (9). […] Functional evidence of TFEB role in the regulation of autophagy came from the observation that degradation of long-lived proteins was enhanced by TFEB overexpression, and reduced by TFEB knock-down. This enhancement was abolished by the autophagy inhibitor 3-methyl adenine (3-MA) (10) (FIG. 8).

mTORC1 = mTORC1 activity by level of p-P70S6K in HeLa cells treated overnight (FIG. 19A); type: cell-based
Protocol: (§1) Immunoblotting of protein extracts isolated from HeLa cells treated overnight, as indicated. Membranes were probed with antibodies for p-T202/Y204-ERK1/2, ERK1/2, p-T389-S6K, and S6K to measure ERK and mTORC1 activities. […] FLAG immunoblotting of cytosolic and nuclear fractions isolated from TFEB-3×FLAG HeLa cells cultured in amino acid-free media and subsequently stimulated as indicated for at least 3 h. Correct subcellular fractionation was verified with H3 and tubulin antibodies. […] After 3 h at 37° C. in RPMI medium containing one of each of the compounds, the cells were washed, fixed, and stained with DAPI and photographed by using confocal automated microscopy (Opera high content system, Perkin Elmer). […] Scale bars represent 30 μm. […] The EC50 for each compound was calculated using Prism software (see Materials and Methods for details). […] Antibody used were p-T389-S6K, S6K and FLAG. […] HeLa cells stably expressing Flag-3×TFEB were infected with lentiviruses encoding a Short hairpin (Sh-) RNA targeting luciferase (control) or RagC and RagD mRNAs. […] TFEB localization was detected with a FLAG antibody, whereas tubulin and H3 were used as controls for the cytosolic and nuclear fraction, respectively; levels of S6K phosphorylation were used to test RagC and RagD knockdown efficiency.

TFEB [2] = test: Lysosomal stress: TFEB-3xFLAG nuclear/cytoplasmic fractionation immunoblot in HeLa and HEK-293T cells (FIG. 18); type: cell-based; settings: treated overnight; chloroquine 100 μM, Salicylihalamide A 2 μM
Text: FIG. 18 Lysosomal stress induces TFEB nuclear translocation. […] Histone 3 (H3) and tubulin were used as nuclear and cytosolic markers, respectively. Blots are representative of triplicate experiments.
(§2) The mouse anti-TFEB monoclonal antibody was purchased from My Biosource catalogue No. MBS 120432. To generate anti-pS142 specific antibodies, rabbits were immunized with the following peptide coupled to KLH: AGNSAPN{pSer}[…]. Following the fourth immunization, rabbits were sacrificed and the serum was collected. Non-phosphospecific antibodies were depleted from the serum by circulation through a column containing the nonphosphorylated antigene. The phosphospecific antibodies were subsequently purified using a column containing the phosphorylated peptide. Cells were lysed with M-PER buffer (Thermo) containing protease and phosphatase inhibitors (Sigma); nuclear/cytosolic fractions were isolated as above described. Proteins were separated by SDS-PAGE (Invitrogen; reduced NuPAGE 4-12% Bis-tris Gel, MES SDS buffer). If needed, the gel was stained using 20 ml Imperial Protein Stain (Thermo Fisher) at room temperature for 1 h and de-stained with water. […]
TFEB subcellular localization was then analysed in HeLa and HEK-293T cells transiently transfected with a TFEB-3×FLAG plasmid and treated overnight with inhibitors of lysosomal function.

TFEB [3] = test: TFEB nuclear localization in starved HeLa cells overexpressing TFEB, re-stimulated with media plus supplements or inhibitors (nuclear fractionation, Flag blot, immunofluorescence); type: cell-based; settings: for TFEB nuclear translocation compared to starved media alone: EBSS media supplemented with growth factor or cytokine (FIG. 2f)
Text: (A) Scatter Plot graphs displaying the logarithmic value of the fold change differences in the relative expression levels of 51 autophagy-related genes in HeLa cells cultured in different conditions. X-axis=control group. Y-axis=treated group. Circles represent genes with increased (red) or decreased (green) fold change. Comparisons were as indicated. (B) Chromatin immunoprecipitation (ChIP) analysis. […] Values were normalized to the input and plotted as relative enrichment over a mock control. Experiments were performed in triplicate. (C) qPCR analysis of TFEB-target gene expression in normal, starved, and in TFEB-siRNA starved cells. GAPDH and HPRT represents housekeeping genes, while ATG10, ATG9A and ATG4D represent control genes (non-TFEB target genes). (D-F) HeLa cells stably overexpressing TFEB were left untreated or nutrient starved for 4 h. (D) Five fields containing 50-100 cells/each were analyzed for TFEB nuclear localization. […] (E) Cells were subjected to nuclear/cytosolic fractionation and blotted with Flag antibody. H3 and tubulin were used as nuclear and cytosolic markers, respectively. (F) Nuclear fractions were blotted with Flag and H3 (loading control) antibodies. (G) Western blot analysis of Flag, tubulin and H3 in nuclear extracts prepared from normal, starved and starved/stimulated with normal media cells for 1 h (normal) or pretreated with AP-2 (AKT inhibitor), Rapamycin (mTOR inhibitor) and U0126 (MEK inhibitor) 1 h prior to media stimulation. Total extracts were used to verify the efficiency of the inhibitors. […] Starvation was performed where indicated. (All error bars represent standard deviations. T-test (unpaired) p value (*)<0.05, (**)<0.01)
Cytosolic and nuclear fractions were subjected to Flag immunoblotting. […] Error bars represent standard deviations.
Cells were seeded at 50% of confluence in 6 well dishes and serum starved overnight (ON). Normal medium was added the following day either in presence of DMSO or kinase inhibitors. Subcellular fractionation was carried out as previously reported.
To identify the mechanism of starvation-induced activation of TFEB, the applicants analyzed its subcellular localization and post-translational modifications in starved cells.

TFEB [4] = test: TFEB molecular weight shift and localization in TFEB-3xFLAG HeLa cells stimulated with amino-acid rich medium plus inhibitor (FIG. 19B); type: cell-based; settings: Torin 1 250 nM, Rapamycin 2.5 μM, U0126 50 μM
Protocol: FIG. 19 mTORC1 regulates TFEB. (A) Lysosomal stress inhibits mTOR signaling. Immunoblotting of protein extracts isolated from HeLa cells treated overnight, as indicated. Membranes were probed with antibodies for p-T202/Y204-ERK1/2, ERK1/2, p-T389-S6K, and S6K to measure ERK and mTORC1 activities. […] FLAG immunoblotting of cytosolic and nuclear fractions isolated from TFEB-3×FLAG HeLa cells cultured in amino acid-free media and subsequently stimulated as indicated for at least 3 h. Correct subcellular fractionation was verified with H3 and tubulin antibodies. (C, D) Effects and dose—response curves of ERK and mTOR inhibitors on TFEB nuclear translocation. […] After 3 h at 37° C. in RPMI medium containing one of each of the compounds, the cells were washed, fixed, and stained with DAPI and photographed by using confocal automated microscopy (Opera high content system, Perkin Elmer). (C) Representative images of test concentrations for each compound. Scale bars represent 30 μm. […] The EC50 for each compound was calculated using Prism software (see Materials and Methods for details). (E) Amino acids induce TFEB molecular weight shift. Immunoblotting of protein extracts isolated from HEK-293T cells transfected either TFEB-3×FLAG or with an empty vector were nutrient starved and stimulated for 50 minutes with amino acids (a.a.). Antibody used were p-T389-S6K, S6K and FLAG. (F) Rag knockdown induces TFEB nuclear translocation. HeLa cells stably expressing Flag-3×TFEB were infected with lentiviruses encoding a Short hairpin (Sh-) RNA targeting luciferase (control) or RagC and RagD mRNAs. […] TFEB localization was detected with a FLAG antibody, whereas tubulin and H3 were used as controls for the cytosolic and nuclear fraction, respectively; levels of S6K phosphorylation were used to test RagC and RagD knockdown efficiency.
as §2

TFEB [5] = test: High content TFEB-GFP nuclear translocation assay; type: cell-based; settings: Homo sapiens; TFEB-GFP HeLa cells, 3 h, ten concentrations 2.54 nM to 50 μM (FIG. 19D); read-out: EC50, TFEB nuclear translocation
Protocol: as §1
After 3 hours at 37° C. in RPMI medium cells were washed, fixed, and stained with DAPI. For the acquisition of the images, ten pictures per each well of the 384-well plate were taken by using confocal automated microscopy (Opera high content system, Perkin Elmer). A dedicated script was developed to perform the analysis of TFEB localization on the different images (Acapella software, Perkin Elmer). The script calculates the ratio value resulting from the average intensity of nuclear TFEB-GFP fluorescence divided by the average of the cytosolic intensity of TFEB-GFP fluorescence. The results were normalized using negative (RPMI medium) and positive (HBSS starvation) control samples in the same plate. The data are represented by the percentage of nuclear translocation at the different concentrations of each compound using Prism software (GraphPad software). The EC50 for each compound was calculated using non-linear regression fitting (Prism software).
In order to find additional small molecules able to induce the translocation of TFEB from the cytosol to the nucleus, the applicants developed a cell-based high content assay using stable HeLa cells overexpressing TFEB fused to the green fluorescent protein (TFEB-GFP). In the assay imaging of treated cells is acquired by an automated confocal microscope (OPERA system) and the analysis of those images with Acapella image software calculates the ratio of the average of fluorescence intensity of TFEB-GFP between the cytosol and nucleus of the cell (see Materials and methods for details). […] They tested ten concentrations for each inhibitor.

TFEB target genes = test: qPCR of TFEB target genes in primary hepatocytes (FIG. 21B, C); type: cell-based, mouse; settings: hepatocytes from TFEB conditional knockout mice (Tcfebflox/flox; alb-CRE)
Text: (§3) Subsequently, cells were lysed and protein extracts were immunoblotted with the indicated antibodies. […] Quantitative PCR (qPCR) of TFEB target genes in primary hepatocytes from control (flox/flox) and Tcfeb−/− (flox/flox; alb-Cre) mice. […] The expression levels are shown as % increased expression of the treated versus the corresponding untreated samples. Values represent means±s.d. of three independent hepatocyte preparations (three mice/genotype). Student's t-test (two tailed) *P-value ≦0.05.

mTOR = mTOR (Mus musculus, UniProt Q9JLN9); settings: primary hepatocytes treated overnight
Text: as §3

Compound: Cn1cnc(N)c2ncnc1-2 [3-methyl adenine]
- enhancement of long-lived protein degradation by TFEB overexpression [1]: abolished

Compound: CC/C=C\C=C/C(=O)N/C=C/C[C@H]1C[C@@H](O)[C@@H](C)C/C=C/Cc2cccc(O)c2C(=O)O1 [Salicylihalamide A]
- mTORC1 activity as level of p-P70S6K (mTORC1): inhibited mTORC1 activity
- nuclear translocation of exogenously expressed TFEB (TFEB [2]): induced nuclear translocation

Compound: N#CC(=C(/N)Sc1ccccc1N)/C(C#N)=C(\N)Sc1ccccc1N [U0126]
- TFEB nuclear localization (TFEB [3]; starved cells stimulated with normal medium supplemented with kinase inhibitor (FIG. 2g, 11b)): TFEB nuclear localization, at level similar to starvation
- TFEB molecular weight shift induced by nutrients (TFEB [4]): only a partial TFEB molecular weight shift
- EC50 (TFEB [5]): 80.4 µM

Compound: CCN(CC)CCCC(C)Nc1ccnc2cc(Cl)ccc12 (stereo not shown) [chloroquine]
- transcriptional response of TFEB target genes versus control hepatocytes (TFEB target genes): significantly blunted
- mTORC1 activity as level of p-P70S6K (mTORC1): inhibited mTORC1 activity
- nuclear translocation of exogenously expressed TFEB (TFEB [2]): induced nuclear translocation
- mTOR activity as level of p-S6K (mTOR): inhibited mTOR

Compound: EGF: growth factor supplemented to EBSS media (NSDSECPLSHDGYCLHDGVCMYIEALDKYACNCVVGYIGERCQYRDLKWWELR; UniProt P01133 971-1023, looked up)
- TFEB nuclear translocation compared to starved media alone (TFEB [3]): significant inhibition

Compound: LIF: cytokine supplemented to EBSS media
- TFEB nuclear translocation compared to starved media alone (TFEB [3]): Almost no effect

Compound: insulin
- TFEB nuclear translocation compared to starved media alone (TFEB [3]): significant inhibition
